Measurements published in patent US7851487B2, “Use of tetrahydropyridines in the treatment of central nervous system disorders” (The Research Foundation of State University of New York, priority 2006, dated 2010).

Tests used:
[1] = molecular target: T1, Dopamine D2L (Homo sapiens, UniProt P14416); test: Radioligand binding, Dopamine D2L ([3H]Spiperone)
T1 construct: host or cells: CHO cells
Method: (§1) The assays utilized human neuroreceptors and were performed under the experimental parameters set forth in Table 2 using standard techniques.
(§2) For Table 3, IC50 values were determined by non-linear, least squares regression analysis using Data Analysis Toolbox™ (MDL Information Systems, San Leandro, Calif., USA). Inhibition constants (KI) were calculated using the equation of Cheng and Prusoff (Cheng, Y., et al. Biochem. Pharmacol. 22:3099-3108, 1973) using the observed IC50 of the tested compound, the concentration of radioligand employed in the assay, and the values for the KD of the ligand. The Hill coefficient (nH), defining the slope of the competitive binding curve, was calculated using the Data Analysis Toolbox™. Biochemical assay results are presented as the percent inhibition of specific binding or activity unless indicated otherwise. The experiments summarized in Table 3 utilized human dopamine D1, D2 s, D21, D3, D4.2, D4.4, serotonin 5HT1A, 5HT2A, 5HT2C, 5HT6, 5HT7, dopamine transporter (DAT), serotonin transporter (SERT) and the norepinephrine transporter (NET), as indicated in Table 3.

[2] = molecular target: T2, Dopamine D2s (Homo sapiens, UniProt P14416); test: Radioligand binding, Dopamine D2S ([3H]Spiperone)
T2 construct: host or cells: CHO cells
Method: as §1, §2

[3] = molecular target: T3, Dopamine D4.4 (Homo sapiens, UniProt P21917); test: Radioligand binding, Dopamine D4.4 ([3H]Spiperone)
T3 construct: host or cells: CHO-K1 cells
T3 sequence (P21917 1-419): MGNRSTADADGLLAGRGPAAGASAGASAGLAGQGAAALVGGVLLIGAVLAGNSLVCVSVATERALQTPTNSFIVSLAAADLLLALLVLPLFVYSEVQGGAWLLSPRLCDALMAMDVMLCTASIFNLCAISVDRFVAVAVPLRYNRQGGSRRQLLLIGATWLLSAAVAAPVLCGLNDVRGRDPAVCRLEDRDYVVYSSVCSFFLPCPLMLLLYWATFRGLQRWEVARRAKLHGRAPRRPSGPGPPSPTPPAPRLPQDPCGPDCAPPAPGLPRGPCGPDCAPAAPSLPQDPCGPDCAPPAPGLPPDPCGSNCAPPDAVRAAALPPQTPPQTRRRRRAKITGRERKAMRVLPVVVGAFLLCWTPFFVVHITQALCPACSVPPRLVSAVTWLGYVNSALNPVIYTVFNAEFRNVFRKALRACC
Method: as §1, §2

[4] = molecular target: T4, Serotonin 5HT2A (Homo sapiens, UniProt P28223); test: Radioligand binding, Serotonin 5HT2A ([3H]Ketanserin)
T4 construct: host or cells: CHO-K1 cells
Method: as §1, §2

[5] = molecular target: T5, Serotonin 5HT6 (Homo sapiens, UniProt P50406); test: Radioligand binding, Serotonin 5HT6 ([3H]LSD)
T5 construct: host or cells: HeLa cells
Method: as §1, §2

[6] = molecular target: T6, Dopamine transporter (DAT) (Homo sapiens, UniProt Q01959); test: Radioligand binding, Dopamine transporter (DAT) ([125I]RTI-55)
T6 construct: host or cells: CHO-K1 cells
Method: as §1, §2

[7] = molecular target: T7, Norepinephrine transporter (NET) (Homo sapiens, UniProt P23975); test: Radioligand binding, Norepinephrine transporter (NET) ([125I]RTI-55)
T7 construct: host or cells: MDCK cells
Method: as §1, §2

T6 sequence (Q01959 whole entry): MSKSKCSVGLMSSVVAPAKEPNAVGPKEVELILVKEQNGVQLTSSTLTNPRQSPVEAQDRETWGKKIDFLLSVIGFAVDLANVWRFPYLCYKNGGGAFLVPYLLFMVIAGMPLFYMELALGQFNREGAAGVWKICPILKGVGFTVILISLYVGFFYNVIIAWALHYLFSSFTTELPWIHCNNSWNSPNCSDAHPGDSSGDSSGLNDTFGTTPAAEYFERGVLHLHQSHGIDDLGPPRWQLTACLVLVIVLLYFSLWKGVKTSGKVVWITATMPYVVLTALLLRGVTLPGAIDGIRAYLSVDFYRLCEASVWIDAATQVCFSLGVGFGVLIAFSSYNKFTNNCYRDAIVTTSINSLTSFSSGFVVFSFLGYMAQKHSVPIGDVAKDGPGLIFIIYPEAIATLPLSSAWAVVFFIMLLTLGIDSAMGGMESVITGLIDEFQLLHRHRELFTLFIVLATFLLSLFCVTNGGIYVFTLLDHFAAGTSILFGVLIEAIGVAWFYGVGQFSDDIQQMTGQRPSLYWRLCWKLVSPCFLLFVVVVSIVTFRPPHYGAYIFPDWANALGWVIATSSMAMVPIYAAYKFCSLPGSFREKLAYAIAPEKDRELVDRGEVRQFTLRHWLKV
T7 sequence (P23975 whole entry): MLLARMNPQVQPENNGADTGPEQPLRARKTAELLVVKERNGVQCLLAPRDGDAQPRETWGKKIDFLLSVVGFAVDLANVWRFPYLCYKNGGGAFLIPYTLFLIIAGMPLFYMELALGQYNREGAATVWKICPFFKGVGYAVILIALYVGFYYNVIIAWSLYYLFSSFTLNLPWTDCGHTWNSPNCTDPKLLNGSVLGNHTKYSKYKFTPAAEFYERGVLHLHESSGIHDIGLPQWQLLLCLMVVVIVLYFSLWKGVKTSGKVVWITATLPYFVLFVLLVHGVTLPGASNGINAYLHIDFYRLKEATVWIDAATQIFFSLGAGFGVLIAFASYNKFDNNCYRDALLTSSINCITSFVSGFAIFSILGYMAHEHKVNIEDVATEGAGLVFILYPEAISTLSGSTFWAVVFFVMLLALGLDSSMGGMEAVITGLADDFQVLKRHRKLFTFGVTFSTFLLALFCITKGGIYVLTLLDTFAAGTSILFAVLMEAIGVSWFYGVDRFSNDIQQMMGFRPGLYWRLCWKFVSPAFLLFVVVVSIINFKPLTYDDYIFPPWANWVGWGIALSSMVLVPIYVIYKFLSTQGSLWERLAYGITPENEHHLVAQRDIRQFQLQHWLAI
T2 sequence (P14416 1-414 isoform P14416-2): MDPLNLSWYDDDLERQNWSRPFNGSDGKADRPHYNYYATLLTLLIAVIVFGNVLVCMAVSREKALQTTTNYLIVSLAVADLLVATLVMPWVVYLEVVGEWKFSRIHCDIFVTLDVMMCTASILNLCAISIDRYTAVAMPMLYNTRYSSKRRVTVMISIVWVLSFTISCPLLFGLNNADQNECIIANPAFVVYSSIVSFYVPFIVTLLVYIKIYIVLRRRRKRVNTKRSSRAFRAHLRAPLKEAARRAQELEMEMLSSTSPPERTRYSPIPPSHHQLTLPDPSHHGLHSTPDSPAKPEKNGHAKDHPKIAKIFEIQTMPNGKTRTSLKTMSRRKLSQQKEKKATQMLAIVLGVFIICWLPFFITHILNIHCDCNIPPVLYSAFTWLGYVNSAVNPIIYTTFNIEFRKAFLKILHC
T1 sequence (P14416 whole entry): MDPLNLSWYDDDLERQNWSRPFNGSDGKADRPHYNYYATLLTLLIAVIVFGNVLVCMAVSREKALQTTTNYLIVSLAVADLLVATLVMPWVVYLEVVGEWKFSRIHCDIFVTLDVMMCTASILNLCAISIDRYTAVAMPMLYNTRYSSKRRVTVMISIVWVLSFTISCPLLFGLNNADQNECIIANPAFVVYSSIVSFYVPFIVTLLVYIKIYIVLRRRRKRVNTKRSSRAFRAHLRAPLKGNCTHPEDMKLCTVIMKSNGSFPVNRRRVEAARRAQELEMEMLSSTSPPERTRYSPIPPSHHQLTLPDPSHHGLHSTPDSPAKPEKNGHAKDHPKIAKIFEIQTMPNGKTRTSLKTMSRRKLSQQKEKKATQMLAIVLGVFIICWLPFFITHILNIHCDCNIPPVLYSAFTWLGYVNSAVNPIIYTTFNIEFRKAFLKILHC
T4 sequence (P28223 whole entry): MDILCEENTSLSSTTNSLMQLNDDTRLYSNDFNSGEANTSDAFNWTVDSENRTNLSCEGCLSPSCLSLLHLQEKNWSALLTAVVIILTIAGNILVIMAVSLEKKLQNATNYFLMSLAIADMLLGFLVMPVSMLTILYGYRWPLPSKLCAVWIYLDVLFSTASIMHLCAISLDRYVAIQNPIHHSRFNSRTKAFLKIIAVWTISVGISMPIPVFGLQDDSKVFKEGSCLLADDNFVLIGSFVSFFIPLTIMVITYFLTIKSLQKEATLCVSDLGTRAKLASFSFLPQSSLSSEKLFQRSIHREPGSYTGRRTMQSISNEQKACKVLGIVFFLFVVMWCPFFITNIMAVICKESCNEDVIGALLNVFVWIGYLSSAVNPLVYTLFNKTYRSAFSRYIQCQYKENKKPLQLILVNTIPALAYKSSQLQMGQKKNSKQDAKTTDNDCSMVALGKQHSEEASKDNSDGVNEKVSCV
T5 sequence (P50406 whole entry): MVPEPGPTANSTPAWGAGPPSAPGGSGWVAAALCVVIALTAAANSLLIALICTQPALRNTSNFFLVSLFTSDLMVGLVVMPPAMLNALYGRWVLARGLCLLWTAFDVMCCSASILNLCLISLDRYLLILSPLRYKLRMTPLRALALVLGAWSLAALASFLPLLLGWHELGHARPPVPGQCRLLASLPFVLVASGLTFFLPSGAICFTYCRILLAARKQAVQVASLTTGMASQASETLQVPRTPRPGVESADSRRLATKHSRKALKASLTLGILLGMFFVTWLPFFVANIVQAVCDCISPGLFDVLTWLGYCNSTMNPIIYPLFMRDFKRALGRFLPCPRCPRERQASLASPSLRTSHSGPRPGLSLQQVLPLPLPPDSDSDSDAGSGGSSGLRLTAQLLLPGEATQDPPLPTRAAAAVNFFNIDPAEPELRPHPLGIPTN

COC(=O)[C@@H](c1ccc(-c2ccccc2)cc1)[C@H]1C=CCCN1 [Compound 2]
IC50 [1]: 88.2 µM
Ki [1]: 29.4 µM
inhibition at 10 µM ([1]; Dopamine D2l, 10 μM, read-out: Percentage Inhibition): 13%
inhibition at 100 µM ([1]; Dopamine D2l, 100 μM, read-out: Percentage Inhibition): 54%
nH ([1]; Dopamine D2l, Hill coefficient): 0.716
IC50 [2]: 51.8 µM
Ki [2]: 18.7 µM
inhibition at 10 µM ([2]; Dopamine D2s, 10 μM, read-out: Percentage Inhibition): 26%
inhibition at 100 µM ([2]; Dopamine D2s, 100 μM, read-out: Percentage Inhibition): 62%
nH ([2]; Dopamine D2s, Hill coefficient): 0.788
IC50 [3]: 66.7 µM
Ki [3]: 18.5 µM
nH ([3]; Dopamine D4.4, Hill coefficient): 1.01
Percentage Inhibition ([3]; Dopamine D4.4, concentration 100 (unit not given)): 62%
IC50 [4]: 0.797 µM
Ki [4]: 0.228 µM
inhibition at 1 µM ([4]; Serotonin 5HT2A, 1 μM, read-out: Percentage Inhibition): 61%
inhibition at 10 µM ([4]; Serotonin 5HT2A, 10 μM, read-out: Percentage Inhibition): 94%
nH ([4]; Serotonin 5HT2A, Hill coefficient): 1.02
IC50 [5]: 94.5 µM
Ki [5]: 43.9 µM
inhibition at 100 µM ([5]; Serotonin 5HT6, 100 μM, read-out: Percentage Inhibition): 53%
nH ([5]; Serotonin 5HT6, Hill coefficient): 1.12
IC50 [6]: 13.8 µM
Ki [6]: 11 µM
inhibition at 10 µM ([6]; Dopamine transporter (DAT), 10 μM, read-out: Percentage Inhibition): 33%
inhibition at 100 µM ([6]; Dopamine transporter (DAT), 100 μM, read-out: Percentage Inhibition): 74%
nH ([6]; Dopamine transporter (DAT), Hill coefficient): 1.3
IC50 [7]: 10 µM
Ki [7]: 9.94 µM
inhibition at 10 µM ([7]; Norepinephrine transporter (NET), 10 μM, read-out: Percentage Inhibition): 51%
nH ([7]; Norepinephrine transporter (NET), Hill coefficient): 1.1
